Results from patent US12077503B2, “Substituted cyclic amides and their use as herbicides” (FMC CORPORATION, priority 2015, dated 2024).
Where two headings read alike, the source gives them in different places.

Columns and labels:
Type in all cases: in vivo
[1] = tested on: ryegrass, Italian (Italian ryegrass, Lolium multiflorum); assay: Test A postemergence; conditions: Lolium multiflorum, post-emergence, 240 h; for pest or weed control at 125 g/ha: 125 g ai/ha
In short: (§1)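 In a loam soil and sand blend, planted seeds got a preemergence directed soil spray, and young plants at the one- to two-leaf stage, 2–10 cm high, got a postemergence application; ~10 d greenhouse hold; injury rated visually, 0 = none, 100 = complete control.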

corn (Zea mays) = assay: Test A postemergence; conditions: Zea mays, post-emergence, 240 h
In short: as §1

[2] = tested on: barnyardgrass (Echinochloa crus-galli); assay: Test A postemergence; conditions: Echinochloa crus-galli, post-emergence, 240 h; for pest or weed control at 125 g/ha: 125 g ai/ha
In short: as §1

Kochia (Kochia scoparia) [3] = assay: Test A postemergence; conditions: Bassia scoparia, post-emergence, 240 h; for pest or weed control at 125 g/ha: 125 g ai/ha
In short: as §1

[4] = tested on: pigweed (Amaranthus retroflexus); assay: Test A postemergence; conditions: Amaranthus retroflexus, post-emergence, 240 h; for pest or weed control at 125 g/ha: 125 g ai/ha
In short: as §1

[5] = tested on: Galium (catchweed bedstraw, Galium aparine); assay: Test A postemergence; conditions: Galium, post-emergence, 240 h; for pest or weed control at 125 g/ha: 125 g ai/ha
In short: as §1

[6] = tested on: blackgrass (Alopecurus myosuroides); assay: Test A postemergence; conditions: Alopecurus myosuroides, post-emergence, 240 h; for pest or weed control at 125 g/ha: 125 g ai/ha
In short: as §1

[7] = tested on: giant foxtail (Setaria faberii); assay: Test A postemergence; conditions: Setaria faberi, post-emergence, 240 h; for pest or weed control at 125 g/ha: 125 g ai/ha
In short: as §1

[8] = tested on: wheat (Triticum aestivum); assay: Test A postemergence; conditions: Triticum aestivum, post-emergence, 240 h; for plant injury at 125 g/ha: 125 g ai/ha
In short: as §1

[9] = tested on: ragweed (common ragweed, Ambrosia elatior); assay: Test A postemergence; conditions: Ambrosia artemisiifolia, post-emergence, 240 h; for pest or weed control at 125 g/ha: 125 g ai/ha
In short: as §1

Kochia (Kochia scoparia) [10] = assay: Test A preemergence; conditions: Bassia scoparia, pre-emergence, 240 h, read-out: Plant response rating, Kochia; for pest or weed control at 500 g/ha: 500 g ai/ha; for pest or weed control at 125 g/ha: 125 g ai/ha
In short: as §1

rice (Oryra sativa) = assay: Test B flooded paddy test; conditions: Oryza sativa, Flood, 250 g ai/ha
In short: (§2)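 Greenhouse paddy pots with 2-leaf stage plants received compound by direct addition to floodwater 3 cm deep, kept at that level. Scored visually at 13–15 d versus controls (0 no effect; 100 complete control).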

[11] = tested on: ducksalad (Heteranthera limosa); assay: Test B flooded paddy test; conditions: Heteranthera limosa, Flood, 250 g ai/ha
In short: as §2

[12] = tested on: barnyardgrass (Echinochloa crus-galli); assay: Test B flooded paddy test; conditions: Echinochloa crus-galli, Flood, 250 g ai/ha
In short: as §2

[13] = tested on: sedge, umbrella (small-flower umbrella sedge, Cyperus difformis); assay: Test B flooded paddy test; conditions: Cyperus difformis, Flood, 250 g ai/ha
In short: as §2

## CN1C[C@H](c2ccc(C(F)(F)F)cc2)[C@@H](C(=O)Nc2ccccc2C#N)C1=O [Compound 1379]
[1]; Postemergence, visual rating about 10 d after treatment, read-out: Ryegrass, Italian plant response rating (0 to 100 scale)
  pest or weed control at 125 g/ha: 30%
[1]; Postemergence, 500 g ai/ha, visual injury, 0 to 100 scale (0 no effect, 100 complete control), approx. 10 d, read-out: Plant response rating, Ryegrass, Italian
  pest or weed control at 500 g/ha: 30%
Corn (Zea mays); 125 g ai/ha, Postemergence, visual rating about 10 d after treatment, read-out: Corn plant response rating (0 to 100 scale)
  plant injury at 125 g/ha: 70%
Corn (Zea mays); Postemergence, 500 g ai/ha, visual injury, 0 to 100 scale (0 no effect, 100 complete control), approx. 10 d
  Corn plant response rating (crop injury, 0 = no effect, 100 = complete kill) at 500 g/ha: 70%
[2]; Postemergence, visual rating about 10 d after treatment, read-out: Barnyardgrass plant response rating (0 to 100 scale, 0 no effect, 100 complete control)
  pest or weed control at 125 g/ha: 100%
[2]; Postemergence, 500 g ai/ha, visual injury, 0 to 100 scale (0 no effect, 100 complete control), approx. 10 d, read-out: Plant response rating, Barnyardgrass
  pest or weed control at 500 g/ha: 100%
Kochia (Kochia scoparia) [3]; Postemergence, visual rating about 10 d after treatment, read-out: Kochia plant response rating (0 to 100 scale)
  pest or weed control at 125 g/ha: 30%
Kochia (Kochia scoparia) [3]; Postemergence, 500 g ai/ha, visual injury, 0 to 100 scale (0 no effect, 100 complete control), approx. 10 d, read-out: Plant response rating, Kochia
  pest or weed control at 500 g/ha: 60%
[4]; Postemergence, visual rating about 10 d after treatment, read-out: Pigweed plant response rating (0 to 100 scale)
  pest or weed control at 125 g/ha: 20%
[4]; Postemergence, 500 g ai/ha, visual injury, 0 to 100 scale (0 no effect, 100 complete control), approx. 10 d, read-out: Plant response rating, Pigweed
  pest or weed control at 500 g/ha: 50%
[5]; Postemergence, visual rating about 10 d after treatment, read-out: Galium plant response rating (0 to 100 scale)
  pest or weed control at 125 g/ha: 40%
[5]; Postemergence, 500 g ai/ha, visual injury, 0 to 100 scale (0 no effect, 100 complete control), approx. 10 d, read-out: Plant response rating, Galium
  pest or weed control at 500 g/ha: 60%
[6]; Postemergence, visual rating about 10 d after treatment, read-out: Blackgrass plant response rating (0 to 100 scale)
  pest or weed control at 125 g/ha: 20%
[6]; Postemergence, 500 g ai/ha, visual injury, 0 to 100 scale (0 no effect, 100 complete control), approx. 10 d, read-out: Plant response rating, Blackgrass
  pest or weed control at 500 g/ha: 30%
[7]; Postemergence, visual rating about 10 d after treatment, read-out: Foxtail, Giant plant response rating (0 to 100 scale)
  pest or weed control at 125 g/ha: 80%
[7]; Postemergence, 500 g ai/ha, visual injury, 0 to 100 scale (0 no effect, 100 complete control), approx. 10 d, read-out: Plant response rating, Foxtail, Giant
  pest or weed control at 500 g/ha: 80%
[8]; Postemergence, visual rating about 10 d after treatment, read-out: Wheat plant response rating (0 to 100 scale)
  plant injury at 125 g/ha: 30%
[8]; Postemergence, 500 g ai/ha, visual injury, 0 to 100 scale (0 no effect, 100 complete control), approx. 10 d, read-out: Plant response rating, Wheat
  plant injury at 500 g/ha: 50%
[9]; Postemergence, visual rating about 10 d after treatment, read-out: Ragweed plant response rating (0 to 100 scale)
  pest or weed control at 125 g/ha: 30%
[9]; Postemergence, 500 g ai/ha, visual injury, 0 to 100 scale (0 no effect, 100 complete control), approx. 10 d, read-out: Plant response rating, Ragweed
  pest or weed control at 500 g/ha: 60%
Kochia (Kochia scoparia) [10]; preemergence, 0 to 100 scale (0 no effect, 100 complete control)
  pest or weed control at 500 g/ha: 90%
Kochia (Kochia scoparia) [10]; Preemergence, 0 to 100 scale (0 no effect, 100 complete control)
  pest or weed control at 125 g/ha: 90%
Rice (Oryra sativa); 360 h, visually evaluated after 13 to 15 d, read-out: Plant response rating, Rice (0 to 100 scale where 0 is no effect and 100 is complete control)
  pest or weed control at 250 g/ha: 0%
[11]; 360 h, visually evaluated after 13 to 15 d, read-out: Plant response rating, Ducksalad (0 to 100 scale where 0 is no effect and 100 is complete control)
  pest or weed control at 250 g/ha: 100%
[12]; 360 h, visually evaluated after 13 to 15 d, read-out: Plant response rating, Barnyardgrass (0 to 100 scale where 0 is no effect and 100 is complete control)
  pest or weed control at 250 g/ha: 55%
[13]; 360 h, visually evaluated after 13 to 15 d, read-out: Plant response rating, Sedge, Umbrella (0 to 100 scale where 0 is no effect and 100 is complete control)
  pest or weed control at 250 g/ha: 0%

## CN1C[C@H](c2ccc(C(F)(F)F)cc2)[C@@H](C(=O)Nc2ccccc2C2CC2)C1=O [Compound 747]
[1]; postemergence, visual injury after approximately 10 d, 0 to 100 scale (0 no effect, 100 complete control), read-out: Plant response rating, Ryegrass, Italian
  pest or weed control at 125 g/ha: 0%
Corn (Zea mays); 125 g ai/ha, postemergence, visual injury after approximately 10 d, 0 to 100 scale (0 no effect, 100 complete control)
  Corn plant response rating (crop injury, 0 = no effect, 100 = complete kill) at 125 g/ha: 0%
[2]; postemergence, visual injury after approximately 10 d, 0 to 100 scale (0 no effect, 100 complete control), read-out: Plant response rating, Barnyardgrass
  pest or weed control at 125 g/ha: 40%
Kochia (Kochia scoparia) [3]; postemergence, visual injury after approximately 10 d, 0 to 100 scale (0 no effect, 100 complete control), read-out: Plant response rating, Kochia
  pest or weed control at 125 g/ha: 20%
[4]; postemergence, visual injury after approximately 10 d, 0 to 100 scale (0 no effect, 100 complete control), read-out: Plant response rating, Pigweed
  pest or weed control at 125 g/ha: 30%
[5]; postemergence, visual injury after approximately 10 d, 0 to 100 scale (0 no effect, 100 complete control), read-out: Plant response rating, Galium
  pest or weed control at 125 g/ha: 60%
[6]; postemergence, visual injury after approximately 10 d, 0 to 100 scale (0 no effect, 100 complete control), read-out: Plant response rating, Blackgrass
  pest or weed control at 125 g/ha: 30%
[7]; postemergence, visual injury after approximately 10 d, 0 to 100 scale (0 no effect, 100 complete control), read-out: Plant response rating, Foxtail, Giant
  pest or weed control at 125 g/ha: 70%
[8]; postemergence, visual injury after approximately 10 d, 0 to 100 scale (0 no effect, 100 complete control), read-out: Plant response rating, Wheat
  plant injury at 125 g/ha: 0%
[9]; postemergence, visual injury after approximately 10 d, 0 to 100 scale (0 no effect, 100 complete control), read-out: Plant response rating, Ragweed
  pest or weed control at 125 g/ha: 0%
Kochia (Kochia scoparia) [10]; preemergence, visual rating after approx. 10 d, 0 to 100 scale where 0 is no effect and 100 is complete control
  pest or weed control at 125 g/ha: 60%
Kochia (Kochia scoparia) [10]; preemergence, 0 to 100 scale, 0 = no effect, 100 = complete control
  pest or weed control at 500 g/ha: 80%
Rice (Oryra sativa); scale of 0 to 100 where 0 is no effect and 100 is complete control, read-out: Rice plant response rating
  pest or weed control at 250 g/ha: 15%
[11]; scale of 0 to 100 where 0 is no effect and 100 is complete control, read-out: Ducksalad plant response rating
  pest or weed control at 250 g/ha: 90%
[12]; scale of 0 to 100 where 0 is no effect and 100 is complete control, read-out: Barnyardgrass plant response rating
  pest or weed control at 250 g/ha: 0%
[13]; scale of 0 to 100 where 0 is no effect and 100 is complete control, read-out: Sedge, Umbrella plant response rating
  pest or weed control at 250 g/ha: 0%
